Legend:
[1] = Water solubility (preformulation, preliminary studies); type: physicochemical; details: unformulated
Experimental: The active pharmaceutical ingredients of TML-6 were synthesized and physico-chemical properties were characterized by SinoPharm Pharmaceutical Company (SPT), Tainan, Taiwan. Preformulation studies on the solubility of TML-6 were conducted by Value Pharmaceutical Services (VPS) Company, Jiansu, China. All the data in this study were conducted using unformulated TML-6. Formulation to optimize the solubility and permeability of TML-6 is under development for toxicological studies.

[2] = system: Huh-7 cells; assay: Cytotoxicity assay by Cell Counting Kit-8 (CCK-8); type: cell-based, human; details: Huh-7, 24 h
Experimental: The cytotoxicity assay was performed using the Cell Counting Kit-8 (CCK-8, Sigma). We dissolved 0.0524 g of TML-6 (molecular weight is 523.62 g/mol) in 10 mL DMSO to obtain TML-6 stock at 10 mM for cell line study. […] Briefly, Huh-7 cells were seeded overnight in 96-well plates at 5000 cells/well and then subjected to traditional curcumin or TML-6 treatment for 24 h. At each time point, a CCK-8 solution (0.25 mg/mL) was added to the medium in each well for an additional 4 h incubation, and absorbance was measured at 570 nm using an ELISA reader.

[3] = system: APP (amyloid precursor protein) in Huh-7 cells; assay: Western blotting of APP protein expression; type: cell-based, human; details: 5 µg/mL, 24 h, vs medium control
Experimental: (§1) After cells were seeded and treated with curcumin and TML-6 for 24 h, cells were washed with ice-cold PBS (Phosphate Buffered Saline) and lysed with 100 μL of RIPA cell lysis buffer (Pierce Biotechnology, Rockford, IL, USA) supplemented with protease and phosphatase inhibitors (Roche Diagnostics, Mannheim, Germany). Cell lysates were further cleaned by centrifugation at 14,000 rpm at 4 °C for 15 min. Protein concentration was determined using a Bradford assay (Bio-Rad, Hercules, CA, USA). For Western blot analysis, 20 μg of each sample was prepared for SDS-PAGE (SDS Poly-acrylamide-gel-electrophoresis) and denatured at 95 ℃ for 10 min. The samples prepared from total lysates were loaded and separated by SDS-PAGE (8% or 10%), and then transferred to PVDF membranes (pore size 0.45 μm; PerkinElmer, Waltham, MA, USA) by semi-dry transfer cell (Bio-Rad). After blocking with 5% skim milk in PBS-T (0.1% Tween-20), the membranes were hybridized with primary antibodies at 1/1000 dilution at 4 °C overnight. On the next day, membranes were washed with PBS-T followed by incubation with HRP-conjugated anti-mouse or anti-rabbit secondary antibody (DAKO, Santa Clara, CA, USA) at 1/5000 dilution at room temperature for 1 h as appropriate. […]

[4] = system: phospho-NF-κB in Huh-7 cells; assay: Western blotting of phosphorylated NF-κB; type: cell-based, human; details: 10 µg/mL, 24 h, vs medium control
Experimental: as §1

[5] = system: phospho-mTOR in Huh-7 cells; assay: Western blotting of phospho-mTOR; type: cell-based, human; details: Huh-7, 24 h
Experimental: After cells were seeded and treated with curcumin and TML-6 for 24 h, cells were washed with ice-cold PBS (Phosphate Buffered Saline) and lysed with 100 μL of RIPA cell lysis buffer (Pierce Biotechnology, Rockford, IL, USA) supplemented with protease and phosphatase inhibitors (Roche Diagnostics, Mannheim, Germany). Cell lysates were further cleaned by centrifugation at 14,000 rpm at 4 °C for 15 min. Protein concentration was determined using a Bradford assay (Bio-Rad, Hercules, CA, USA). For Western blot analysis, 20 μg of each sample was prepared for SDS-PAGE (SDS Poly-acrylamide-gel-electrophoresis) and denatured at 95 ℃ for 10 min. The samples prepared from total lysates were loaded and separated by SDS-PAGE (8% or 10%), and then transferred to PVDF membranes (pore size 0.45 μm; PerkinElmer, Waltham, MA, USA) by semi-dry transfer cell (Bio-Rad). After blocking with 5% skim milk in PBS-T (0.1% Tween-20), the membranes were hybridized with primary antibodies at 1/1000 dilution at 4 °C overnight. On the next day, membranes were washed with PBS-T followed by incubation with HRP-conjugated anti-mouse or anti-rabbit secondary antibody (DAKO, Santa Clara, CA, USA) at 1/5000 dilution at room temperature for 1 h as appropriate. Finally, the images were captured by Amersham Imager 600 (GE Healthcare Life Sciences, Marlborough, MA, USA) after being developed using the chemiluminescent HRP substrate (Millipore, Bedford, MA, USA). The primary antibodies used in this study were anti-APP, anti-NF-κB (Cell Signaling Technology, Danvers, MA, USA), anti-Apo E, anti-p-mTOR (Abcam, Cambridge, MA, USA).

[6] = system: Aβ40 production in N2a/APPswe stable cells; assay: Aβ40 ELISA of culture medium; type: cell-based, mouse; details: different doses up to 20 µg/mL, 24 h
Experimental: (§2) Extracellular levels of soluble Aβ40 and Aβ42 were determined by LEGEND MAX™ β-Amyloid x-40 and X-42 ELISA Kit (Biolegend, San Diego, CA, USA). Overexpression of the APP Swedish mutation (APPswe) in the N2a neuronblastoma cell line was called the N2a/APPswe cell line. N2a/APPswe stable cells were seeded at 8 × 10^5 cells in 6 cm dishes. After overnight incubation, the cells were treated with curcumin and TML-6 for 24 h. […] The culture supernatant was collected and centrifuged at 1500× g at 4 °C for 5 min to remove cells. The culture supernatants from various treatments were conducted to examine the Aβ levels according to the manufacturer’s instructions. The samples for the detection of soluble Aβ levels were diluted in the supernatant at a 1:10 dilution for this experiment. Levels of soluble Aβ were detected by measuring the OD at 620 nm (Molecular Devices, San Jose, CA, USA). The calculation of Aβ levels was based on the standard curves of Aβ40 and Aβ42, respectively.

[7] = system: Aβ42 production in N2a/APPswe stable cells; assay: Aβ42 ELISA of culture medium; type: cell-based, mouse; details: different doses up to 20 µg/mL, 24 h
Experimental: as §2

[8] = system: N2a/APPswe stable cells; assay: Cell viability/morphology by micrographs during Aβ ELISA treatment; type: cell-based, mouse; details: 24 h
Experimental: as §2

[9] = system: 3xTg AD transgenic mice; assay: Morris water maze test in 3xTg AD transgenic mice; type: in vivo, mouse; details: 150 mg/kg/day in diet for four months; six-month-old 3xTg AD mice; vs vehicle control
Experimental: (§3) The triplex transgenic mouse model (3xTg-AD, APP Swedish, MAPT P301L, and PSEN1 M146V) was adopted as the AD model and bred at the laboratory animal center of National Cheng Kung University (NCKU), Tainan, Taiwan. The mice were housed in a room maintained on a 12 h light–dark cycle and fed ad libitum. Six-month old 3xTg-AD mice were used for animal experiments. Experimental procedures for handling the mice were in accordance with the guidelines of the Institutional Animal Care and Use Committee (IACUC) of NCKU. These mice develop plaques and tangles pathology. Aβ deposition is progressive, and deposition appears as early as nine months for triplex-Tg mice. The AD transgenic mice were fed with the control diet (Laboratory Rodent Diet 5001, LabDiet, St. Louis, MO, USA), the control diet plus traditional curcumin (150 mg/kg), or the control diet plus TML-6 (150 mg/kg) for four months. Diets were stored at 4 °C and were added to mouse cage twice a week. The quantity of the diet consumed by the mice was determined daily. The concentration of curcumin and TML-6 in the diet was determined to be around 1.20 mg/g of diet after assaying by HPLC by the Development Center for the Biotechnology (DCB), Taipei, Taiwan.
For assessing spatial learning and memory, the Morris water maze was used as we described before. […] The time taken to reach the platform was recorded as escape latency.

[10] = system: Aβ in 3xTg AD mouse brain; assay: Immunofluorescence staining of Aβ in brain of 3xTg AD mice; type: in vivo; details: 150 mg/kg/day in diet for four months
Experimental: as §3, with “The AD transgenic mice were fed with the control diet (Laboratory Rodent Diet 5001, LabDiet, St. Louis, MO, USA), the control diet plus traditional curcumin (150 mg/kg), or the control diet plus TML-6 (150 mg/kg) for four months. Diets were stored at 4 °C and were added to mouse cage twice a week.” left out
(§4) Mice were anesthetized using pentobarbital (60 mg/kg, intravenous) and then transcardial perfusion was performed with 0.01 M PBS (pH 7.4). […] Images were captured by the TissureFAXS microscopy system and positive signals were quantified by TissueQuest software module (TissueGnostic, Vienne, Austria).

[11] = system: Iba-1 (microglial activation marker) in 3xTg AD mouse hippocampus; assay: Immunofluorescence staining of Iba-1 in brain of 3xTg AD mice; type: in vivo; details: 150 mg/kg/day in diet for four months
Experimental: as §3, with “The AD transgenic mice were fed with the control diet (Laboratory Rodent Diet 5001, LabDiet, St. Louis, MO, USA), the control diet plus traditional curcumin (150 mg/kg), or the control diet plus TML-6 (150 mg/kg) for four months. Diets were stored at 4 °C and were added to mouse cage twice a week.” left out
as §4

[12] = Pharmacokinetic study after oral administration in SD rats; type: in vivo, rat; details: SD rats, oral 150 mg/kg
Experimental: In order to evaluate the bioavailability of curcumin and its analog TML-6, pharmacokinetic studies were commissioned and conducted by the Development Center for Biotechnology (DCB, Taipei, Taiwan). The kinetics of curcumin and TML-6 in blood were collected at 0.25, 0.5, 1, 2, 4, 6, 8 and 10 h after oral administration of curcumin and TML-6 at the dose of 150 mg/kg in male Sprague–Dawley Rats.

[13] = system: rat neuroblastoma B104-APP751 stable cell line; design: method as in PMID 20622013; details: 15 and 20 μM, no cytotoxicity; cited from earlier work
[14] = system: human neuroglioma H4-APP751 stable cell line; design: method as in PMID 20622013; details: 15 and 20 μM, no cytotoxicity; cited from earlier work

Substance: curcumin [reference compound]
- water solubility [1]: less than 0.1 mg/mL
- IC50 [2]: 60 µM
- cytotoxicity (CCK-8) ([2]; up to highest concentration of 20 µg/mL): no obvious cytotoxicity
- reduction of APP protein expression level [3]: 30%
- decrease of phosphorylated NF-κB level [4]: 35%
- phospho-mTOR suppression (Western blot, in words) [5]: suppressed in a dose-dependent manner
- Aβ40 level vs control (in words) [6]: increased to levels higher than those of the control
- Aβ42 level vs control (in words) [7]: increased to levels higher than those of the control
- highest dose, at which cytotoxicity was seen (micrographs) [8]: 20 µg/mL
- learning behavior in Morris water maze (in words) [9]: no significant difference
- Aβ expression in brain vs vehicle (in words) [10]: trend of reduction but without significant differences
- Iba-1 expression vs vehicle (in words) [11]: no significant change
- blood concentrations at each time point [12]: not detectable
- Aβ40 and Aβ42 levels (in words) [13]: significantly decreased
- Aβ40 and Aβ42 levels (in words) [14]: significantly decreased
